SMILES strings stand for the structures.

Data on 1 compound can be found in patent publication US12410185B2, “Compounds targeting mutant calreticulin” (MYELOPRO DIAGNOSTICS AND RESEARCH GmbH, priority 2018, dated 2025).

The subject of assay [1] is mutant CALR Ba/F3 cell lines. Nature of the assay: 72 h dose response test, CellTiter-Glo cell viability assay. It is filed as cell-based, mouse. Conditions: 72 h dose response test. (Cellular ATP, detected with luciferase, serves as a proxy for viable cell number.)
The subject of assay [2] is Ba/F3-MPL CALR del52/WT cells mixed with Ba/F3-MPL CALR WT cells. Nature of the assay: two-color competition assay, 12 days. It is filed as cell-based, mouse. As to conditions: in the presence of TPO, compared to DMSO control. How it is done: FIG. 10: Competition assay of hematoxylin treatment in Ba/F3-MPL cells. Ba/F3-MPL CALR WT (GFP negative) and Ba/F3-MPL CALR del52/WT (GFP positive) cells were mixed and underwent hematoxylin treatment for 12 days. Drug and cytokine were refreshed every 3 days. Percentage of GFP positive cells were recorded by FACs.
To determine long-term viability, a two-color competition assay was used. Cell lines were transduced with pMSCV-IRES-GFP/mCherry construct, and the fluorescence-positive cells were sorted by a SH800Z Cell Sorter (Sony). GFP/mCherry-positive cell lines were mixed with their non-fluorescent control cells in a 1:1 ratio and underwent compound treatment for 3-12 days. Compounds and cytokines were refreshed every 3 days. Cell samples were analyzed at each time point by a BD LSRFortessa™ cell analyzer (BD Biosciences).

Assay [3] deals with T1, mutant calreticulin (Mus musculus, UniProt P14211).
T1 construct: endogenous in cells; host or cells: Ba/F3-MPL CALR WT/del79 (heterozygous) and CALR del37/del37 (homozygous) cell lines and their hematoxylin-resistant clones
T1 sequence (P14211 with tags, fused parts or gaps, stated change not applied): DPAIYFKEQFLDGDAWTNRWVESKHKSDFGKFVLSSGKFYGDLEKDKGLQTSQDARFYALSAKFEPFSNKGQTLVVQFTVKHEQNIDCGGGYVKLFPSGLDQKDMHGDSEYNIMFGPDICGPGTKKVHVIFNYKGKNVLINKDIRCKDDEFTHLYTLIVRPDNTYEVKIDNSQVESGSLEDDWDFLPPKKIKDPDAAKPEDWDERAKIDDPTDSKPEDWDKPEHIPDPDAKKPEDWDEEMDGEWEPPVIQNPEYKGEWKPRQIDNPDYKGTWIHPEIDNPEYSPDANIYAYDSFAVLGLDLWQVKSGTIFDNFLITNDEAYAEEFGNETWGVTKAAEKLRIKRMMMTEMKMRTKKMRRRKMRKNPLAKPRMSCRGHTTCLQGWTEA
The assay is described as follows: Western blot analysis of Ba/F3-MPL cell lines. The class given is cell-based. As to conditions: time-course. How it is done: (§1) 2 million Ba/F3-MPL CALR WT or mutant cells were treated with hematoxylin or the equivalent volume of DMSO in a total volume of 15 ml of RPMI media in T75 flasks (Thermal Fisher Scientific). Cells were collected and washed with PBS before being lysed in whole cell lysis buffer containing 20 mM HEPES, 20% glycerol, 50 mM KCl, 400 mM NaCl, 1 mM EDTA, 1 mM DTT, 5 mM Na orthovanadate, 0.5% NP40, 0.1% Tween 20, supplemented with cOmplete™, Mini, EDTA-free Protease Inhibitor Cocktail (Sigma) and PhosSTOP™ (Sigma). Samples were rotated at 4° C. for 20 min prior to centrifugation at […] for 20 min. The soluble fraction of the sample was collected. Protein concentration was quantified by the Bio-Rad Protein Assay (Bio-Rad) according to the manufacturer's instructions and measured by a SpectraMax Microplate Reader (Molecular Devices). Equal amounts of protein were loaded for 8% or 10% SDS-polyacrylamide gel electrophoresis prior to transfer to Amersham™ Protran® nitrocellulose membranes at 35V, 4° C. overnight. Membranes were then blocked by 5% bovine serum albumin fraction V (Sigma) or milk. Mutant calreticulin was detected by a polyclonal rabbit antibody against the mutant specific C-terminal peptide (Myelopro). The other primary antibodies used were as follows: Calregulin Antibody (F-4)(sc-373863 Santa Cruz), Anti-HSC70(B-6) (J2212, Santa Cruz), Anti-Stat5 (N20)(L1112, Santa Cruz), anti-pYSTAT5 (Tyr694)(71-6900, Life Technologies), anti-TPOR/cMpl (#6944, Millipore), Cleaved PARP (Asp214) (#9548, Cell Signaling). HRP-linked anti-mouse and anti-rabbit antibodies (NA931/4, GE Healthcare Life Sciences) were used as secondary antibodies. Clarity™ Western ECL Blotting Substrates (Biorad) were used for the chemiluminescence detection method.
(§2) To confirm that the cytotoxic selectivity of hematoxylin in CALR mutant cell lines is due to a specific effect on mutant calreticulin, Ba/F3-MPL CALR WT and mutant cell lines were treated with the compound for 24 hours. […]

The test system of assay [4] is mutant calreticulin. The assay is described as follows: Western blot analysis of Ba/F3-MPL cell lines. It is filed as cell-based, mouse. As to conditions: 20 uM, 24 hours, heterozygous and homozygous mutant cell lines. How it is done: as §1, §2
The target in another assay is T2, wild-type calreticulin (Mus musculus, UniProt P14211).
T2 construct: endogenous in cells; host or cells: Ba/F3-MPL CALR WT and CALR WT/del79 cell lines
T2 sequence (P14211 18-416): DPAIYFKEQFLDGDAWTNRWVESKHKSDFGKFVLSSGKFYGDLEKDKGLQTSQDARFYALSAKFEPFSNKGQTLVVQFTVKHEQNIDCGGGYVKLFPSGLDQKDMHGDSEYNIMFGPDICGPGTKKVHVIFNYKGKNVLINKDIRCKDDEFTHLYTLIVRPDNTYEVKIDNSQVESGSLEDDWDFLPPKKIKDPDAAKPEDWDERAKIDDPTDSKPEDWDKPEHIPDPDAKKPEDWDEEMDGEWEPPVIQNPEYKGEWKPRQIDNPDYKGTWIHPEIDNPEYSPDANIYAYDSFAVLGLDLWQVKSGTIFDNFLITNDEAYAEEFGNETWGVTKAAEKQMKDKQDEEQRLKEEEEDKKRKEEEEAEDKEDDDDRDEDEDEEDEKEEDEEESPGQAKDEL
The assay is described as follows: Western blot analysis of Ba/F3-MPL cell lines. The class given is cell-based. Conditions: 20 uM, 24 hours. The method, then:
as §1, with “The other primary antibodies used were as follows: Calregulin Antibody (F-4)(sc-373863 Santa Cruz), Anti-HSC70(B-6) (J2212, Santa Cruz), Anti-Stat5 (N20)(L1112, Santa Cruz), anti-pYSTAT5 (Tyr694)(71-6900, Life Technologies), anti-TPOR/cMpl (#6944, Millipore), Cleaved PARP (Asp214) (#9548, Cell Signaling). HRP-linked anti-mouse and anti-rabbit antibodies (NA931/4, GE Healthcare Life Sciences) were used as secondary antibodies. Clarity™ Western ECL Blotting Substrates (Biorad) were used for the chemiluminescence detection method.” left out

The test system of assay [5] is hematoxylin-resistant Ba/F3-MPL CALR mutant cell lines. Nature of the assay: dose response test in hematoxylin-resistant cell lines. Conditions: lines selected under 20 uM hematoxylin for 4 weeks. The class given is cell-based, mouse. The method, then:
FIG. 21: Dose response of hematoxylin in Ba/F3-MPL resistant cell lines. Ba/F3-MPL CALR del79/WT and Ba/F3-MPL CALR del37/del37 were cultured with hematoxylin at a concentration of 20 uM for 4 weeks. CALR del79/WT resistant clone 1 and CALR del37/del37 resistant clone were cultured without cytokine. CALR del79/WT resistant clone 2 were cultured with 5% TPO.
Ba/F3-MPL CALR del79/WT and CALR del37/del37 cell lines were cultured with 20 uM of hematoxylin with or without 5% TPO continuously for 4 weeks. The cells were passaged every 3 days and seeded at 0.5 million per well in 6-well plates with addition of fresh hematoxylin and cytokine.

Assay [6] addresses T3, mutant calreticulin (Homo sapiens, UniProt P27797).
T3 construct: CD34-positive cells isolated from a healthy control and a CALR ins5 mutant patient; endogenous in cells; host or cells: primary CD34-positive cells from a CALR ins5 mutant patient
Nature of the assay: Western blot analysis of CD34-positive cells from a CALR ins5 mutant patient. It is filed as cell-based. Details: dose or concentration left out as unconfirmed. Conditions: hematoxylin, 8 hours. How it is done:
as §1, with “The other primary antibodies used were as follows: Calregulin Antibody (F-4)(sc-373863 Santa Cruz), Anti-HSC70(B-6) (J2212, Santa Cruz), Anti-Stat5 (N20)(L1112, Santa Cruz), anti-pYSTAT5 (Tyr694)(71-6900, Life Technologies), anti-TPOR/cMpl (#6944, Millipore), Cleaved PARP (Asp214) (#9548, Cell Signaling). HRP-linked anti-mouse and anti-rabbit antibodies (NA931/4, GE Healthcare Life Sciences) were used as secondary antibodies. Clarity™ Western ECL Blotting Substrates (Biorad) were used for the chemiluminescence detection method.” left out
(In general: A western blot detects proteins with antibodies after separation by electrophoresis.)

T3 sequence (P27797 with tags, fused parts or gaps, stated change not applied): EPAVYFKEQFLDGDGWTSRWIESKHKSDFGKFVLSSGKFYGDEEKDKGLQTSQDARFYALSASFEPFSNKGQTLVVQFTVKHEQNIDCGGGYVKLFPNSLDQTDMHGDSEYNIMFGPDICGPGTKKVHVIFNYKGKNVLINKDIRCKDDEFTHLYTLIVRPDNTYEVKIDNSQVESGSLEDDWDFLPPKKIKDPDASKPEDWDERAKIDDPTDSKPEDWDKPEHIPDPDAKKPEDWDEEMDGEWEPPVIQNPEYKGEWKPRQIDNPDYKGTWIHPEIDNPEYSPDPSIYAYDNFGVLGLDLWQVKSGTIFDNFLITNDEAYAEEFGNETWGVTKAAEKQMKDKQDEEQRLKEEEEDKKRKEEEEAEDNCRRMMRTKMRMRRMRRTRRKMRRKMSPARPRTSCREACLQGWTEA

For `Oc1cc2c(cc1O)[C@@H]1c3ccc(O)c(O)c3OC[C@]1(O)C2` [hematoxylin, Hematoxylin], in assay [1], the “reduction of IC50 in mutant CALR Ba/F3 cell lines compared with the wild-type cell line” value is 3-5 fold. Further, the “depletion of CALR mutant cells in co-cultivation with CALR WT cells” value in assay [2] was “almost completely depleted”. Moreover, the “mutant calreticulin and MPL protein level” value at mutant calreticulin [3] (8-hour time point) is given as “more drastic reduction”. Moreover, the “time to start of decrease of mutant calreticulin and MPL” value at mutant calreticulin [3] (Ba/F3-MPL CALR WT/del79) worked out at 4 h. Further, the “mutant calreticulin protein level” value in the assay on mutant calreticulin [4] is reported as “striking down-regulation”. In addition, the “wild-type calreticulin protein level” value at wild-type calreticulin (CALR WT cell line) is recorded as “not affected”; on wild-type calreticulin (CALR heterozygous mutant cell line), “up-regulation”. In addition, the “viability of resistant cell lines in response to the treatment” value in assay [5] was “Increased viability”. Further, at mutant calreticulin [6], the “protein abundance of mutant calreticulin” value is given as “drastically reduced”.
